Measurements published in patent US9358281B2, “Methods, agents and peptides for inducing an innate immune response in HIV vaccination” (New York University, priority 2009, dated 2016).

Test system: monocyte-derived dendritic cells (MDDC)
Type: cell-based, human
Settings: added during the first 24 hours

| Structure (SMILES) | effect on transduction efficiency |
| --- | --- |
| Cc1cn([C@H]2C[C@H](N=[N+]=[N-])[C@@H](CO)O2)c(=O)[nH]c1=O [AZT, Zidovudine] | inhibited transduction efficiency |
| Cc1nnc(C(=O)NC(C)(C)c2nc(C(=O)NCc3ccc(F)cc3)c(O)c(=O)n2C)o1 [RAL, Raltegravir] | inhibited transduction efficiency |
